Counter-ions that a name gives are not always drawn.
What follows are compounds tested against T1, HCV polymerase (Hepatitis C virus genotype 1b, UniProt P26663) (assay: biochemical).
T1 construct: a region encoding NS5B (J Virol 1991 March, 65(3), 1105-13, 544 amino acids after deletion of 47 amino acids on the C-terminal); 6xHis (C); made in house; host or cells: Escherichia coli
Parameters: species or system HCV BK strain
Text: The evaluation of the HCV polymerase inhibitory activity of the compound of the present invention is explained in the following. This polymerase is an enzyme coded for by the non-structural protein region called NS5B on the genome RNA of HCV (EMBO J., 15:12-22, 1996).
Using, as a template, a cDNA clone corresponding to the full length genome RNA of HCV BK strain obtained from the blood of a patient with hepatitis C, a region encoding NS5B (J Virol 1991 March, 65(3), 1105-13, 544 amino acids after deletion of 47 amino acids on the C-terminal) was amplified by PCR. The objective gene was prepared by adding a 6 His tag {base pair encoding 6 continuous histidine (His)}to the 3′ end thereof and transformed to Escherichia coli. The Escherichia coli capable of producing the objective protein was cultured. The obtained cells were suspended in a buffer solution and crushed in a microfluidizer.
Using a synthetic primer designed based on the sequence of HCV genomic 3′ untranslated region, a DNA fragment (148 bp) containing polyU and 3′X sequence was entirely synthesized and cloned into plasmid pBluescript SK II(+) (Stratagene). The cDNA encoding full length NS5B, which was prepared in i) above, was digested with restriction enzyme KpnI to give a cDNA fragment containing the nucleotide sequence of from the restriction enzyme cleavage site to the termination codon. This cDNA fragment was inserted into the upstream of 3′ untranslated region of the DNA in pBluescript SK II(+) and ligated. The about 450 bp inserted DNA sequence was used as a template in the preparation of substrate RNA.
RNA was synthesized (37° C., 3 hr) by run-off method using this purified DNA as a template, a promoter of pBluescript SK II(+), MEGAscript RNA synthesis kit (Ambion) and T7 RNA polymerase. DNase I was added and the mixture was incubated for 1 hr. The template DNA was removed by decomposition to give a crude RNA product.
A test substance (compound of the present invention) and a reaction mixture (30 μl) having the following composition were reacted at 25° C. for 90 min.
10% Trichloroacetic acid at 4° C. and 1% sodium pyrophosphate solution (150 μl) were added to this reaction mixture to stop the reaction. The reaction mixture was left standing in ice for 15 min to insolubilize RNA. This RNA was trapped on a glass filter (Whatman GF/C and the like) upon filtration by suction. This filter was washed with a solution containing 1% trichloroacetic acid and 0.1% sodium pyrophosphate, washed with 90% ethanol and dried. A liquid scintillation cocktail (Packard) was added and the radioactivity of RNA synthesized by the enzyme reaction was measured on a liquid scintillation counter.
The HCV polymerase inhibitory activity (IC50) of the compound of the present invention was calculated from the values of radioactivity of the enzyme reaction with and without the test substance.
Reaction mixture: HCV polymerase (0.5 μg/ml) obtained in i), substrate RNA (5 μg/ml) obtained in ii), ATP (50 μM), GTP (50 μM), CTP ([…]), UTP (2 μM), [5,6-^3H]UTP (46 Ci/mmol (Amersham), 1 μCi) 20 mM Tris-HCl (pH 7.5), EDTA (1 mM), MgCl2 (5 mM), NaCl (50 mM), DTT (1 mM), BSA (0.01%)

T1 sequence (P26663 2420-2963): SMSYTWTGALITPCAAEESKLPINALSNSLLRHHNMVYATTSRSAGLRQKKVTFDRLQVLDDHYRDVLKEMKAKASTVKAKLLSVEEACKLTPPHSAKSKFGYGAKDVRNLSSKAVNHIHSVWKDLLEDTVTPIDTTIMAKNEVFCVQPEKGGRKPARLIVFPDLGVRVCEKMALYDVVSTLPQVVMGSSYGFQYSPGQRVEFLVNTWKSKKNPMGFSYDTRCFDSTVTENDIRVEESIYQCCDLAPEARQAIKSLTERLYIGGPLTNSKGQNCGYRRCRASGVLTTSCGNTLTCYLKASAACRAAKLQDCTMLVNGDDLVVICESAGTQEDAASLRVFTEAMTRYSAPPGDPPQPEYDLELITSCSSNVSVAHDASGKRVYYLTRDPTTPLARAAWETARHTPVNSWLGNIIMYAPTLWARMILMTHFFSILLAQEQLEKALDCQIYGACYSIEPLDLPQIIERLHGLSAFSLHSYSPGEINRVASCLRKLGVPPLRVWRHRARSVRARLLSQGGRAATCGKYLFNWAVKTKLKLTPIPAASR

With `COC(=O)Oc1ccc2c(c1)N(CCN(C)C)CCn1c-2c(C2CCCCC2)c2ccc(C(=O)O)cc21` [Example 1-310, 13-cyclohexyl-5-(2-dimethylaminoethyl)-3-methoxycarbonyloxy-6,7-dihydro-5H-benzo[5,6][1,4]diazepino[7,1-a]indole-10-carboxylic acid dihydrochloride] as the compound, how does the IC50 read?
Its IC50 is less than 100 nM.

How did the IC50 turn out when `CCN1CCC(CCN2CCn3c(c(C4CCCCC4)c4ccc(C(=O)O)cc43)-c3ccccc32)CC1` [Example 1-93, 13-cyclohexyl-5-[2-(1-ethylpiperidin-4-yl)ethyl]-6,7-dihydro-5H-benzo[5,6][1,4]diazepino[7,1-a]indole-10-carboxylic acid dihydrochloride] was run?
Its IC50 is less than 100 nM.

For `COC(=O)[C@@H](NC(=O)c1ccc2c(C3CCCCC3)c3n(c2c1)CCOc1cc(OC)ccc1-3)c1ccc(O)cc1` [Example 2-270, methyl (S)-2-[(12-cyclohexyl-3-methoxy-6,7-dihydro-5-oxa-7a-azadibenzo[a,e]azulene-9-carbonyl)amino]-2-(4-hydroxyphenyl)acetate], which IC50 is on record?
Its IC50 is less than 100 nM.

How did the IC50 turn out when `CS(=O)(=O)N1CCCC(Oc2ccc3c(c2)OCCn2c-3c(C3CCCCC3)c3ccc(C(=O)O)cc32)C1` (stereo not drawn) [Example 2-44, 12-cyclohexyl-3-(1-methanesulfonylpiperidin-3-yloxy)-6,7-dihydro-5-oxa-7a-azadibenzo[a,e]azulene-9-carboxylic acid] was run?
The IC50 was less than 100 nM.

Which IC50 does the source give for `CNC(=O)[C@H](Cc1ccc(NC(=O)OC)cc1)NC(=O)c1ccc2c(C3CCCCC3)c3n(c2c1)CCOc1cc(OC)ccc1-3` [Example 2-384, methyl (4-{(S)-2-[(12-cyclohexyl-3-methoxy-6,7-dihydro-5-oxa-7a-azadibenzo[a,e]azulene-9-carbonyl)amino]-2-(methylcarbamoyl)ethyl}phenyl)carbamate] here?
The IC50 was less than 100 nM.

How did the IC50 turn out when `CC(C)(NC(=O)c1ccc2c(C3CCCCC3)c3n(c2c1)CCOc1ccccc1-3)C(=O)N1CCC(NS(C)(=O)=O)CC1` [Example 2-335, N-[2-(4-methanesulfonylaminopiperidin-1-yl)-1,1-dimethyl-2-oxoethyl]-12-cyclohexyl-6,7-dihydro-5-oxa-7a-azadibenzo[a,e]azulene-9-carboxamide] was run?
Its IC50 is less than 100 nM.

Which IC50 does the source give for `CN(C)CCN1CCn2c(c(C3CCCCC3)c3ccc(C(=O)O)cc32)-c2ccc(OCc3ccccc3)cc21` [Example 1-228, 3-benzyloxy-13-cyclohexyl-5-(2-dimethylaminoethyl)-6,7-dihydro-5H-benzo[5,6][1,4]diazepino[7,1-a]indole-10-carboxylic acid dihydrochloride] here?
Its IC50 is less than 100 nM.

With `Cc1ccc2c(c1)N(CCN1CCCOCC1)CCn1c-2c(C2CCCCC2)c2ccc(C(=O)O)cc21` [Example 1-168, 13-cyclohexyl-3-methyl-5-[2-(1,4-oxazepan-4-yl)ethyl]-6,7-dihydro-5H-benzo[5,6][1,4]diazepino[7,1-a]indole-10-carboxylic acid] as the compound, how does the IC50 read?
Its IC50 is less than 100 nM.

How did the IC50 turn out when `COc1ccc2c(c1)OCCn1c-2c(C2CCCCC2)c2ccc(C(=O)N[C@@H](Cc3ccc(O)cc3)c3nc(=O)on3C)cc21` [Example 2-453, N—[(S)-2-(4-hydroxyphenyl)-1-(2-methyl-5-oxo-2,5-dihydro-1,2,4-oxadiazol-3-yl)ethyl]-12-cyclohexyl-3-methoxy-6,7-dihydro-5-oxa-7a-azadibenzo[a,e]azulene-9-carboxamide] was run?
Its IC50 is less than 100 nM.

Which IC50 does the source give for `O=C(O)c1ccc2c(C3CCCCC3)c3n(c2c1)CCN(CC(=O)N1CCS(=O)(=O)CC1)c1ccccc1-3` [Example 1-45, 13-cyclohexyl-5-[2-(1,1-dioxothiomorpholin-4-yl)-2-oxoethyl]-6,7-dihydro-5H-benzo[5,6][1,4]diazepino[7,1-a]indole-10-carboxylic acid monohydrochloride] here?
Its IC50 is less than 100 nM.

For `COCCN(C)CCN1CCn2c(c(C3CCCCC3)c3ccc(C(=O)O)cc32)-c2ccccc21` [Example 1-40, 13-cyclohexyl-5-{2-[N-(2-methoxyethyl)-N-methylamino]ethyl}-6,7-dihydro-5H-benzo[5,6][1,4]diazepino[7,1-a]indole-10-carboxylic acid dihydrochloride], which IC50 is on record?
Its IC50 is less than 100 nM.

With `Cc1ccc2c(c1)N(CC(=O)N1CCOCC1)CCn1c-2c(C2CCCCC2)c2ccc(C(=O)O)cc21` [Example 1-63, 13-cyclohexyl-3-methyl-5-[2-(morpholin-4-yl)-2-oxoethyl]-6,7-dihydro-5H-benzo[5,6][1,4]diazepino[7,1-a]indole-10-carboxylic acid monohydrochloride] as the compound, how does the IC50 read?
Its IC50 is less than 100 nM.

With `NC(=O)c1ccc2c(C3CCCCC3)c3n(c2c1)CCN(CCN1CCCCC1)c1cc(Cl)ccc1-3` [Example 1-180, 3-chloro-13-cyclohexyl-5-[2-(piperidin-1-yl)ethyl]-6,7-dihydro-5H-benzo[5,6][1,4]diazepino[7,1-a]indole-10-carboxamide dihydrochloride] as the compound, how does the IC50 read?
Its IC50 is less than 100 nM.

With `COC(=O)c1nc(C(C)(C)NC(=O)c2ccc3c(C4CCCCC4)c4n(c3c2)CCOc2ccccc2-4)oc1C` [Example 2-235, methyl 2-{1-[(12-cyclohexyl-6,7-dihydro-5-oxa-7a-azadibenzo[a,e]azulene-9-carbonyl)amino]-1-methylethyl}-5-methyloxazole-4-carboxylate] as the compound, how does the IC50 read?
Its IC50 is less than 100 nM.

For `CCCN(CCN1CCCCC1)c1cccc2c1OCCn1c-2c(C2CCCCC2)c2ccc(C(=O)O)cc21` [Example 2-481, 12-cyclohexyl-4-{N-[2-(piperidin-1-yl)ethyl]-N-propylamino}-6,7-dihydro-5-oxa-7a-azadibenzo[a,e]azulene-9-carboxylic acid dihydrochloride], which IC50 is on record?
Its IC50 is less than 100 nM.

With `COC(=O)c1cc2[nH]c(C(C)(C)NC(=O)c3ccc4c(C5CCCCC5)c5n(c4c3)CCOc3ccccc3-5)nc2cc1C` [Example 2-282, methyl 2-{1-[(12-cyclohexyl-6,7-dihydro-5-oxa-7a-azadibenzo[a,e]azulene-9-carbonyl)amino]-1-methylethyl}-6-methyl-3H-benzimidazole-5-carboxylate] as the compound, how does the IC50 read?
Its IC50 is less than 100 nM.

With `COc1ccc2c(c1)OCCn1c-2c(C2CCCCC2)c2ccc(C(=O)N[C@@H](Cc3ccc(O)cc3)C(=O)N(C)OC)cc21` [Example 2-427, N—[(S)-2-(4-hydroxyphenyl)-1-(N-methoxy-N-methylcarbamoyl)ethyl]-12-cyclohexyl-3-methoxy-6,7-dihydro-5-oxa-7a-azadibenzo[a,e]azulene-9-carboxamide] as the compound, how does the IC50 read?
Its IC50 is less than 100 nM.

How did the IC50 turn out when `CN(CCN1CCn2c(c(C3CCCCC3)c3ccc(C(=O)O)cc32)-c2ccccc21)C1CCCC1` [Example 1-319, 13-cyclohexyl-5-[2-(N-cyclopentyl-N-methylamino)ethyl]-6,7-dihydro-5H-benzo[5,6][1,4]diazepino[7,1-a]indole-10-carboxylic acid] was run?
Its IC50 is less than 100 nM.

With `CC(C)(C)OC(=O)N1CCC(NC(=O)c2ccc3c(C4CCCCC4)c4n(c3c2)CCOc2ccccc2-4)(C(=O)Nc2ccc(/C=C/C(=O)O)cc2)CC1` [Example 2-155, tert-butyl 4-[4-((E)-2-carboxyvinyl)phenylcarbamoyl]-4-[(12-cyclohexyl-6,7-dihydro-5-oxa-7a-azadibenzo[a,e]azulene-9-carbonyl)amino]piperidine-1-carboxylate] as the compound, how does the IC50 read?
The IC50 was less than 100 nM.

With `COC[C@H]1CCCN1CCN1CCn2c(c(C3CCCCC3)c3ccc(C(=O)O)cc32)-c2ccccc21` [Example 1-316, 13-cyclohexyl-5-[2-((R)-2-methoxymethylpyrrolidin-1-yl)ethyl]-6,7-dihydro-5H-benzo[5,6][1,4]diazepino[7,1-a]indole-10-carboxylic acid dihydrochloride] as the compound, how does the IC50 read?
The IC50 was less than 100 nM.

With `COc1ccc2c(c1)N(CCN1CCCCC1)CCn1c-2c(C2CCCCC2)c2ccc(C(=O)O)cc21` [Example 1-74, 13-cyclohexyl-3-methoxy-5-[2-(piperidin-1-yl)ethyl]-6,7-dihydro-5H-benzo[5,6][1,4]diazepino[7,1-a]indole-10-carboxylic acid dihydrochloride] as the compound, how does the IC50 read?
Its IC50 is less than 100 nM.

Reference: patent US20070049593A1 (priority 2004, published 2007)
